Results as given in patent US20260240923A1, “COMPOSITION COMPRISING BIFIDOBACTERIUM ANIMALIS SUBSP. LACTIS STRAIN AND 2’-FUCOSYLLACTOSE” (Chr. Hansen A/S, priority 2023, published 2026).

Tested on: human PBMCs
Assay: Cytokine secretion from human PBMCs, homeostatic and Poly (I:C) challenged conditions (Example 6)
Format: cell-based
Conditions: homeostatic (unchallenged) conditions, 20 hrs; bacteria grown on 2′FL; 2′FL 2%

2′-Fucosyllactose [2′FL]
IFN-γ secretion: did not induce secretion | IL-10 secretion: did not induce secretion
